Experiments:
[1] = target: HERG potassium channel (Homo sapiens, UniProt Q12809); assay: Inhibition at HERG potassium channel (prior-art compound); conditions: background statement on prior-art compound of WO 0208928
[2] = target: T1, NR2B receptor (Rattus norvegicus, UniProt P35439+Q00960); assay: NR2B Binding Assay; conditions: forebrain P2 membranes of male CD rats; 5 nM [3H] NR2B ligand
T1 construct: Membranes were prepared by homogenization of forebrain of male CD rats; from tissue; host or cells: forebrain of male CD rats (P2 membrane)
Procedure: The activity of the cycloalkylene amide compounds of the present invention, as NR2B antagonists, is determined by their ability to inhibit the binding of NR2B subunit at its receptor sites employing radioactive ligands.
The NR^2B antagonist activity of the cycloalkylene amide compounds is evaluated by using the standard assay procedure described in, for example, J. Pharmacol., 331, pp 117-126, 1997. This method essentially involves determining the concentration of the individual compound required to reduce the amount of radiolabelled NR2B ligands by 50% at their receptor sites, thereby affording characteristic IC50 values for each compound tested. More specifically, the assay is carried out as follows.
Membranes were prepared by homogenization of forebrain of male CD rats weighing between 170˜190 g by using glass-Teflon homogenizer in 0.32 M sucrose at 4° C. The crude nuclear pellet was removed by centrifugation at 1000×g for 10 min, and the supernatant centrifuged at 17000×g for 25 min. The resulting pellet was resuspended in 5 mM Tris acetate pH 7.4 at 4° C. for 10 min to lyse cellular particles and again centrifuged at 17000×g. The resulting pellet (P2 membrane) was washed twice in Tris acetate, resuspended at 5.5 mg protein/ml and stored at −20° C. until use. All the manipulation was done on ice, and stock solution and equipment were kept on ice at all time.
For the saturation assay, receptor saturation was determined by incubating [^3H]-1-[(1S*,2S*)-2-hydroxy-2-(4-hydroxyphenyl)-1-methylethyl]-4-phenylpiperidin-4-ol and 50 μg protein of P2 membrane for 60 minutes at room temperature in a final 100 μl of incubation buffer (50 mM Tris HCl, pH7.4). Total and non-specific bindings (in the presence of 10 μM of unlabeled 1-[(1S*,2S*)-2-hydroxy-2-(4-hydroxyphenyl)-1-methylethyl]-4-phenylpiperidin-4-ol) were determined in a range of [^3H]-1-[(1S*,2S*)-2-hydroxy-2-(4-hydroxyphenyl)-1-methylethyl]-4-phenylpiperidin-4-ol concentrations (0.625 nM to 60 nM).
For the competition assay, test compounds were incubated in duplicate with 5 nM [^3H]-1-[(1S*,2S*)-2-hydroxy-2-(4-hydroxyphenyl)-1-methylethyl]-4-phenylpiperidin-4-ol and 50 μg protein of P2 membrane for 60 minutes at room temperature in a final 100 μl of 50 mM Tris HCl buffer (pH7.4). Nonspecific binding was determined by 10 μM of unlabeled 1-[(1S*,2S*)-2-hydroxy-2-(4-hydroxyphenyl)-1-methylethyl]-4-phenylpiperidin-4-ol (25 μl). The saturation derived KD gained in saturation assay was used for all Ki calculations.
All incubations were terminated by rapid vacuum filtration over 0.2% polyethyleneimine soaked Whatman GF/B glass fibre filter paper using a SKATRON cell harvester followed by three washes with ice-cold filtration buffer (5 mM Tris HCl, pH 7.4.). Receptor-bound radioactivity was quantified by liquid scintillation counting using Packard LS counter. Competition assays were performed by counting Wallac GF/B filters on Betaplate scintillation counter (Wallac).

[3] = target: Human HERG (Homo sapiens, UniProt Q12809)
Chain of Human HERG (Q12809 whole entry): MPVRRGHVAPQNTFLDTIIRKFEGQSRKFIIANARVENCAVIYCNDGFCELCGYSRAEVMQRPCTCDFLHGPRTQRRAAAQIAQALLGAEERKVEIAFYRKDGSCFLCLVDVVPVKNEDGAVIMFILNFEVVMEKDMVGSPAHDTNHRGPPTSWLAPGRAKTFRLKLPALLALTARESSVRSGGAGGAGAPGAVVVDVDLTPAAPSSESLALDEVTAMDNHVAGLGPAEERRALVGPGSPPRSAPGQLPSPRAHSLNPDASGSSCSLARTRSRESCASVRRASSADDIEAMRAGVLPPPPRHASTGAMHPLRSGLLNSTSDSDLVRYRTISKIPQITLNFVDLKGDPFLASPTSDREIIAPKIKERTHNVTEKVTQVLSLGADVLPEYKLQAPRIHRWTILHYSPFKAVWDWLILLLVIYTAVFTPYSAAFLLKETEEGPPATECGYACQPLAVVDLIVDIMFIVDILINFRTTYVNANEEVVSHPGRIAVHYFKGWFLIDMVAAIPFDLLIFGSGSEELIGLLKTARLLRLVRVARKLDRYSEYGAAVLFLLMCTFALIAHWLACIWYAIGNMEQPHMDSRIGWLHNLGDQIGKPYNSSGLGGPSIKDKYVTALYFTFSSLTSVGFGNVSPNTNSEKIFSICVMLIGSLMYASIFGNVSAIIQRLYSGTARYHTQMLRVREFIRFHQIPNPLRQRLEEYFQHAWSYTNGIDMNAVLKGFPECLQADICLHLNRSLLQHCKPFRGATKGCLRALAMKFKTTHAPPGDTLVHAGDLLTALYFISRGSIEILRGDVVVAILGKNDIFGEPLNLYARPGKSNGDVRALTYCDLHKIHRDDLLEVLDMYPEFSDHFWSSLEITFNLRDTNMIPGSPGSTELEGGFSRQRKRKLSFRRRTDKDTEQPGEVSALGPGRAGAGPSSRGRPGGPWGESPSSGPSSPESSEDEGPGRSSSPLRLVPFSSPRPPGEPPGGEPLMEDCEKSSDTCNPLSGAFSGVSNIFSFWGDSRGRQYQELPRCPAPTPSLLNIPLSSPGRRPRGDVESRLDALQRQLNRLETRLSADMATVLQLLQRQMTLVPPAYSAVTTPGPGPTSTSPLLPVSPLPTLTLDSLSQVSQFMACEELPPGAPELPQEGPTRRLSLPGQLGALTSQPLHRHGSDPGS
Procedure: Human HERG transfected HEK293S cells were prepared and grown in-house. The collected cells were suspended in 50 mM Tris-HCl (pH 7.4 at 4° C.) and homogenized using a hand held Polytron PT 1200 disruptor set at full power for 20 sec on ice. The homogenates were centrifuged at 48,000×g at 4° C. for 20 min. The pellets were then resuspended, homogenized, and centrifuged once more in the same manner. The final pellets were resuspended in an appropriate volume of 50 mM Tris-HCl, 10 mM KCl, 1 mM MgCl2 (pH 7.4 at 4° C.), homogenized, aliquoted and stored at −80° C. until use. An aliquot of membrane fractions was used for protein concentration determination using BCA protein assay kit (PIERCE) and ARVOsx plate reader (Wallac).
Binding assays were conducted in a total volume of 200 μl in 96-well plates. Twenty μl of test compounds were incubated with 20 μl of [^3H]-dofetilide (Amersham, final 5 nM) and 160 μl of membrane homogenate (25 μg protein) for 60 minutes at room temperature. Nonspecific binding was determined by 10 μM dofetilide at the final concentration. Incubation was terminated by rapid vacuum filtration over 0.5% presoaked GF/B Betaplate filter using Skatron cell harvester with 50 mM Tris-HCl, 10 mM KCl, 1 mM MgCl2, pH 7.4 at 4° C. The filters were dried, put into sample bags and filled with Betaplate Scint. Radioactivity bound to filter was counted with Wallac Betaplate counter.

T1 sequence (Q00960 27-1482, other chains not shown): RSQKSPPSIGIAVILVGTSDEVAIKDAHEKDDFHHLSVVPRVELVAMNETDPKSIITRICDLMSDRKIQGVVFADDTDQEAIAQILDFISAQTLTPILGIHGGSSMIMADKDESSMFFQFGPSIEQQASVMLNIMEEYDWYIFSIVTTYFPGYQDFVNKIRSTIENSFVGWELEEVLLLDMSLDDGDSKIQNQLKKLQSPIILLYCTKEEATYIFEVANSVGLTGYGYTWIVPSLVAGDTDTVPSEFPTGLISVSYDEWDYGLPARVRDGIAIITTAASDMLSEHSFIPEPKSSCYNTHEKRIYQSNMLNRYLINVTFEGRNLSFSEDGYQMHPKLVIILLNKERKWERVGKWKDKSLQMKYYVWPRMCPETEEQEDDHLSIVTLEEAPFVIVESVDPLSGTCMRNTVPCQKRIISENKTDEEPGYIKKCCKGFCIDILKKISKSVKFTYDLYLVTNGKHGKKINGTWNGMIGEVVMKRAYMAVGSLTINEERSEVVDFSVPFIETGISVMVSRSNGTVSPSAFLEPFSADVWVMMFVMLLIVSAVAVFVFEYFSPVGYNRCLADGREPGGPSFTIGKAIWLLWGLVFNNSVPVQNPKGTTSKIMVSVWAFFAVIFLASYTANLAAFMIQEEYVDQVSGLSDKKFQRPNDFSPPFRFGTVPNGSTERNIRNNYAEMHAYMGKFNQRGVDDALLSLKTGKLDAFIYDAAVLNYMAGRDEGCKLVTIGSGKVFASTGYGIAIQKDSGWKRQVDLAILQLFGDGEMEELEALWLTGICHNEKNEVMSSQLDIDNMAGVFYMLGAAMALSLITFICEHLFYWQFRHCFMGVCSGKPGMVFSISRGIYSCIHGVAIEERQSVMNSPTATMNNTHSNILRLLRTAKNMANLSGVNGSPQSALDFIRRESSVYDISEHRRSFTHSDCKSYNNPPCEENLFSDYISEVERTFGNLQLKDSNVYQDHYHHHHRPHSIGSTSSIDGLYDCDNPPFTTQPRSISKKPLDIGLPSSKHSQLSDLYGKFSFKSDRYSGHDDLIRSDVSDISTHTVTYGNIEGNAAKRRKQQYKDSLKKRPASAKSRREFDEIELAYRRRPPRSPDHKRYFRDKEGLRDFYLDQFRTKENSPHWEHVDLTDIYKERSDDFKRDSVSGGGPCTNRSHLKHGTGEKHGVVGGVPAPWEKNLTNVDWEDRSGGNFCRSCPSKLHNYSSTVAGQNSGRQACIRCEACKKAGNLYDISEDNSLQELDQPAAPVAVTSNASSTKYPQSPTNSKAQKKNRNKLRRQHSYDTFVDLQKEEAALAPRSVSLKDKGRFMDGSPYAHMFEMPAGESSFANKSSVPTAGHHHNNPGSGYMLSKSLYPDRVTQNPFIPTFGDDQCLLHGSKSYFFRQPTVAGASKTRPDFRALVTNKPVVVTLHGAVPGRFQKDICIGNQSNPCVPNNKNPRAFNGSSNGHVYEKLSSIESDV
Chain of HERG potassium channel (Q12809 whole entry): as the sequence (Q12809 whole entry) above

Structure (SMILES) | IC50 [1] [µM] | IC50 [2] [µM] | IC50 [3] [µM]
O=C(NCC1CCN(CCCc2ccccc2)CC1)c1ccc(O)cc1 [Compound (i)] | < 3 | – | –
O=C(NC[C@H]1CC[C@@H](OCCc2ccccc2)CC1)c1ccc(O)nc1 [Example 71, 6-Hydroxy-N-{[cis-4-(2-phenethoxy)cyclohexyl]methyl}nicotinamide] | – | 0.0071 | > 100

Source: patent publication US20070167452A1, “Therapeutic amide derivatives” (PFIZER, INC., priority 2004, published 2007)
